# From PubChem BioAssay AID2060504 (Molecular Pharmacology Branch, DTP, NCI, 2025)
# pIC50: −log10 of the molar value.
# Tested on: 636577-100-R-J1-PDC complex spheroid viability
# Assay: Anticancer human tumor 636577-100-R-J1-PDC patient-derived endometrial adenocarcinoma cell line growth inhibition [GQUAD]
# Settings: for pIC50: curve of first compound; for viability, T/C: stronger effect = lower value
# Outline: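 Tumor cells were grown as complex spheroids with HUVEC endothelial cells and mesenchymal stem cells as stroma. G-quadruplex stabilizers were combined with targeted agents over half-log dilutions from near the clinical Cmax, or from 10 microM.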
# [1] = second compound 0.0316 µM, first compound 0.0316 µM
# [2] = second compound 0.0316 µM, first compound 0.1 µM
# [3] = second compound 0.0316 µM, first compound 0.316 µM
# [4] = second compound 0.0316 µM, first compound 1 µM
# [5] = second compound 0.0316 µM, first compound 3.16 µM
# [6] = second compound 0.0316 µM, first compound 10 µM
# [7] = second compound 0.1 µM, first compound 0.0316 µM
# [8] = second compound 0.1 µM, first compound 0.1 µM
# [9] = second compound 0.1 µM, first compound 0.316 µM
# [10] = second compound 0.1 µM, first compound 1 µM
# [11] = second compound 0.1 µM, first compound 3.16 µM
# [12] = second compound 0.1 µM, first compound 10 µM
# [13] = second compound 0.316 µM, first compound 0.0316 µM
# [14] = second compound 0.316 µM, first compound 0.1 µM
# [15] = second compound 0.316 µM, first compound 0.316 µM
# [16] = second compound 0.316 µM, first compound 1 µM
# [17] = second compound 0.316 µM, first compound 3.16 µM
# [18] = second compound 0.316 µM, first compound 10 µM
# [19] = second compound 1 µM, first compound 0.0316 µM
# [20] = second compound 1 µM, first compound 0.1 µM
# [21] = second compound 1 µM, first compound 0.316 µM
# [22] = second compound 1 µM, first compound 1 µM
# [23] = second compound 1 µM, first compound 3.16 µM
# [24] = second compound 1 µM, first compound 10 µM
# [25] = second compound 3.16 µM, first compound 0.0316 µM
# [26] = second compound 3.16 µM, first compound 0.1 µM
# [27] = second compound 3.16 µM, first compound 0.316 µM
# [28] = second compound 3.16 µM, first compound 1 µM
# [29] = second compound 3.16 µM, first compound 3.16 µM
# [30] = second compound 3.16 µM, first compound 10 µM
# [31] = second compound 10 µM, first compound 0.0316 µM
# [32] = second compound 10 µM, first compound 0.1 µM
# [33] = second compound 10 µM, first compound 0.316 µM
# [34] = second compound 10 µM, first compound 1 µM
# [35] = second compound 10 µM, first compound 3.16 µM
# [36] = second compound 10 µM, first compound 10 µM
# 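Further: viability read after seven days of drug exposure.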
# 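Wherever viability, T/C is given: luminescence signal used as a proxy for viable cells; 100% = DMSO vehicle control wells.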
structure (smiles),measurement,setting,value
CC(=O)O[C@H]1C(=O)[C@@]2(C)[C@H]([C@H](OC(=O)c3ccccc3)[C@]3(O)C[C@H](OC(=O)[C@H](O)[C@@H](NC(=O)c4ccccc4)c4ccccc4)C(C)=C1C3(C)C)[C@]1(OC(C)=O)CO[C@@H]1C[C@@H]2O + Cc1[nH]c2ccc(F)cc2c1-c1nc2c3cccnc3c3ncccc3c2[nH]1,pIC50,second compound 0.0316 µM,> 7.50
same,pIC50,second compound 0.1 µM,> 7.50
same,pIC50,second compound 0.316 µM,> 7.50
same,pIC50,second compound 1 µM,> 7.50
same,pIC50,second compound 3.16 µM,> 7.50
same,pIC50,second compound 10 µM,> 7.50
same,"viability, T/C",[1],16.9%
same,"viability, T/C",[2],14.4%
same,"viability, T/C",[3],13.5%
same,"viability, T/C",[4],12%
same,"viability, T/C",[5],11.2%
same,"viability, T/C",[6],11.2%
same,"viability, T/C",[7],15.5%
same,"viability, T/C",[8],13.5%
same,"viability, T/C",[9],10.8%
same,"viability, T/C",[10],9.49%
same,"viability, T/C",[11],11.1%
same,"viability, T/C",[12],9.8%
same,"viability, T/C",[13],17.3%
same,"viability, T/C",[14],13.2%
same,"viability, T/C",[15],11.6%
same,"viability, T/C",[16],10.4%
same,"viability, T/C",[17],9.79%
same,"viability, T/C",[18],11.4%
same,"viability, T/C",[19],16.5%
same,"viability, T/C",[20],12%
same,"viability, T/C",[21],12%
same,"viability, T/C",[22],12.1%
same,"viability, T/C",[23],10.9%
same,"viability, T/C",[24],11%
same,"viability, T/C",[25],15.3%
same,"viability, T/C",[26],11.7%
same,"viability, T/C",[27],13.8%
same,"viability, T/C",[28],12.5%
same,"viability, T/C",[29],10.7%
same,"viability, T/C",[30],8.71%
same,"viability, T/C",[31],15.6%
same,"viability, T/C",[32],13.5%
same,"viability, T/C",[33],10.5%
same,"viability, T/C",[34],11.4%
same,"viability, T/C",[35],12.7%
same,"viability, T/C",[36],12.6%
CC1COCCN1c1cc(-c2ccnn2C)c2ccnc(-c3ccn[nH]3)c2n1 (stereo not drawn) + Cc1cnc(CNC(=O)c2c(=O)c3ccc(N4CCCN(C)CC4)nc3n3c2sc2ccccc23)cn1,pIC50,second compound 0.0316 µM,> 7.50
same,pIC50,second compound 0.1 µM,> 7.50
same,pIC50,second compound 0.316 µM,> 7.50
same,pIC50,second compound 1 µM,> 7.50
same,pIC50,second compound 3.16 µM,> 7.50
same,pIC50,second compound 10 µM,> 7.50
same,"viability, T/C",[1],31.9%
same,"viability, T/C",[2],20.2%
same,"viability, T/C",[3],18.4%
same,"viability, T/C",[4],9.61%
same,"viability, T/C",[5],5.71%
same,"viability, T/C",[6],3.77%
same,"viability, T/C",[7],22.7%
same,"viability, T/C",[8],19.2%
same,"viability, T/C",[9],17.2%
same,"viability, T/C",[10],11.2%
same,"viability, T/C",[11],6.18%
same,"viability, T/C",[12],3.47%
same,"viability, T/C",[13],15.1%
same,"viability, T/C",[14],19.7%
same,"viability, T/C",[15],17.7%
same,"viability, T/C",[16],12.5%
same,"viability, T/C",[17],6.51%
same,"viability, T/C",[18],2.82%
same,"viability, T/C",[19],17.9%
same,"viability, T/C",[20],18.9%
same,"viability, T/C",[21],15.6%
same,"viability, T/C",[22],14.7%
same,"viability, T/C",[23],7.08%
same,"viability, T/C",[24],3.42%
same,"viability, T/C",[25],18.9%
same,"viability, T/C",[26],17.4%
same,"viability, T/C",[27],16.8%
same,"viability, T/C",[28],14%
same,"viability, T/C",[29],7.38%
same,"viability, T/C",[30],3.36%
same,"viability, T/C",[31],16.8%
same,"viability, T/C",[32],16.6%
same,"viability, T/C",[33],17.2%
same,"viability, T/C",[34],10.1%
same,"viability, T/C",[35],6.54%
same,"viability, T/C",[36],3.1%
COc1cc(C2c3cc4c(cc3C(OC3OC5COC(C)OC5C(O)C3O)C3COC(=O)C23)OCO4)cc(OC)c1O (stereo not drawn) + Cc1cnc(CNC(=O)c2c(=O)c3ccc(N4CCCN(C)CC4)nc3n3c2sc2ccccc23)cn1,pIC50,second compound 0.0316 µM,> 7.50
same,pIC50,second compound 0.1 µM,> 7.50
same,pIC50,second compound 0.316 µM,> 7.50
same,pIC50,second compound 1 µM,> 7.50
same,pIC50,second compound 3.16 µM,> 7.50
same,pIC50,second compound 10 µM,> 7.50
same,"viability, T/C",[1],28.9%
same,"viability, T/C",[2],21.4%
same,"viability, T/C",[3],18.5%
same,"viability, T/C",[4],14.2%
same,"viability, T/C",[5],13.7%
same,"viability, T/C",[6],10.5%
same,"viability, T/C",[7],25.8%
same,"viability, T/C",[8],22.7%
same,"viability, T/C",[9],18.6%
same,"viability, T/C",[10],13.6%
same,"viability, T/C",[11],16.5%
same,"viability, T/C",[12],12.9%
same,"viability, T/C",[13],22.2%
same,"viability, T/C",[14],21.3%
same,"viability, T/C",[15],17.8%
same,"viability, T/C",[16],16.4%
same,"viability, T/C",[17],17%
same,"viability, T/C",[18],13.2%
same,"viability, T/C",[19],21.5%
same,"viability, T/C",[20],19.1%
same,"viability, T/C",[21],17.6%
same,"viability, T/C",[22],18.9%
same,"viability, T/C",[23],17.8%
same,"viability, T/C",[24],12.5%
same,"viability, T/C",[25],19.3%
same,"viability, T/C",[26],16.4%
same,"viability, T/C",[27],19.6%
same,"viability, T/C",[28],19.2%
same,"viability, T/C",[29],18.2%
same,"viability, T/C",[30],13.4%
same,"viability, T/C",[31],17.8%
same,"viability, T/C",[32],18.5%
same,"viability, T/C",[33],19.4%
same,"viability, T/C",[34],19.2%
same,"viability, T/C",[35],17.7%
same,"viability, T/C",[36],12.3%
Cn1ncnc1[C@H]1c2n[nH]c(=O)c3cc(F)cc(c23)N[C@@H]1c1ccc(F)cc1 + Cc1cnc(CNC(=O)c2c(=O)c3ccc(N4CCCN(C)CC4)nc3n3c2sc2ccccc23)cn1,pIC50,second compound 0.0316 µM,> 9.00
same,pIC50,second compound 0.1 µM,> 9.00
same,pIC50,second compound 0.316 µM,> 9.00
same,pIC50,second compound 1 µM,> 9.00
same,pIC50,second compound 3.16 µM,> 9.00
same,pIC50,second compound 10 µM,> 9.00
same,"viability, T/C","second compound 0.0316 µM, first compound 0.000999 µM",47.9%
same,"viability, T/C","second compound 0.0316 µM, first compound 0.00316 µM",25.6%
same,"viability, T/C","second compound 0.0316 µM, first compound 0.00999 µM",39.7%
same,"viability, T/C",[1],24%
same,"viability, T/C","second compound 0.0316 µM, first compound 0.0999 µM",24.7%
same,"viability, T/C",[3],24.9%
same,"viability, T/C","second compound 0.1 µM, first compound 0.000999 µM",26.9%
same,"viability, T/C","second compound 0.1 µM, first compound 0.00316 µM",26.9%
same,"viability, T/C","second compound 0.1 µM, first compound 0.00999 µM",26.6%
same,"viability, T/C",[7],20.6%
same,"viability, T/C","second compound 0.1 µM, first compound 0.0999 µM",24.1%
same,"viability, T/C",[9],19.9%
same,"viability, T/C","second compound 0.316 µM, first compound 0.000999 µM",21%
same,"viability, T/C","second compound 0.316 µM, first compound 0.00316 µM",23.2%
same,"viability, T/C","second compound 0.316 µM, first compound 0.00999 µM",21.1%
same,"viability, T/C",[13],22.9%
same,"viability, T/C","second compound 0.316 µM, first compound 0.0999 µM",21.8%
same,"viability, T/C",[15],19.2%
same,"viability, T/C","second compound 1 µM, first compound 0.000999 µM",20.1%
same,"viability, T/C","second compound 1 µM, first compound 0.00316 µM",19%
same,"viability, T/C","second compound 1 µM, first compound 0.00999 µM",19.8%
same,"viability, T/C",[19],21%
same,"viability, T/C","second compound 1 µM, first compound 0.0999 µM",19.4%
same,"viability, T/C",[21],20.4%
same,"viability, T/C","second compound 3.16 µM, first compound 0.000999 µM",19%
same,"viability, T/C","second compound 3.16 µM, first compound 0.00316 µM",18.6%
same,"viability, T/C","second compound 3.16 µM, first compound 0.00999 µM",21.6%
same,"viability, T/C",[25],19.7%
same,"viability, T/C","second compound 3.16 µM, first compound 0.0999 µM",21.7%
same,"viability, T/C",[27],19.2%
same,"viability, T/C","second compound 10 µM, first compound 0.000999 µM",15.2%
same,"viability, T/C","second compound 10 µM, first compound 0.00316 µM",18.5%
same,"viability, T/C","second compound 10 µM, first compound 0.00999 µM",21.9%
same,"viability, T/C",[31],19.4%
same,"viability, T/C","second compound 10 µM, first compound 0.0999 µM",21.9%
same,"viability, T/C",[33],19.2%
